Laboratory results from patent US20230158034A1, “CO-TREATMENT WITH CDK4/6 AND CDK2 INHIBITORS TO SUPPRESS TUMOR ADAPTATION TO CDK2 INHIBITORS” (Pfizer Inc., priority 2020, published 2023).

What was measured:
[1] = tested on: Rb, Nucleolin, Cdc6 and Nbs1 phosphorylation; experiment: Immunofluorescence and western blotting of endogenous CDK2 substrates; type: cell-based, human; conditions: 10 μM 3 MB-PP1 for 1 hr, RPE-hTERT CDK2^F80G/F80G cells
Procedure: Cells were fixed for 15 minutes with freshly prepared 4% paraformaldehyde, washed twice with PBS, and incubated with a blocking buffer (3% BSA in PBS) for 1 hr at room temperature. Permeabilization was carried out using 0.2% Triton-X 100 for 15 min at 4° C. Primary antibody was diluted in blocking buffer and incubated with cells overnight at 4° C. followed by three washes with 1×PBS. Secondary antibodies conjugated to Alexa Fluor 488, Alexa Fluor 546 or Alexa Fluor 647 were incubated for 1 hr followed by three washes with 1×PBS. DNA was stained using Hoechst 33342 dye for 10 minutes at 1:10000 (ThermoFisher H3570). Images were acquired on a Nikon Eclipse Ti or Ti2 microscope with a 10×0.45 NA objective. DNA content was determined by taking the integrated intensity of each cell's Hoechst signal. Cells were delineated as 3-4N DNA content by plotting a histogram of DNA content and drawing a threshold and the end of the 2N peak.
Lysates were prepared using 1×LDS sample buffer (ThermoFisher NP007) using equal numbers of cells. Proteins were separated using NuPAGE precast polyacrylamide gels (ThermoFisher NP0301). Total protein was quantified using Azure Red Dye (Azure Biosystems AC2124) and was used to normalize the signal from antibodies of interest. Primary antibodies used are specified under the “Antibodies” section. HRP-conjugated or IR700 and IR800 labeled fluorescent secondary antibodies were used for visualization (Cell Signaling Technology 7074 and 7076).

[2] = tested on: CDK2 activity (DHB sensor phosphorylation); experiment: DHB-based CDK2 activity sensor, single-cell time-lapse imaging (C/N ratio); parameters: species or system human
Description: (§1) The DHB sensor is localized to the nucleus when it is not phosphorylated. Upon phosphorylation, the nuclear localization signal is masked, the nuclear export signal is unmasked, and the sensor steadily translocates to the cytoplasm in response to increasing CDK2 activity (FIG. 1A). Thus, kinase activity can be quantified by the ratio of the cytoplasmic to nuclear fluorescence intensity (C/N ratio) of the DHB sensor. […] Asynchronously cycling cells were first imaged for approximately 20 hr in the absence of drug to establish the cell-cycle phase of each cell; the movie was then paused to add drug, and then imaging was continued for another 1-2 days. Because the cells were cycling asynchronously, all cell-cycle phases with one drug treatment were sampled. This allowed the present inventors to computationally isolate traces for cells that received drug at any time since the completion of anaphase.
(§2) Cells were seeded at least 24 hr prior to imaging in phenol-red-free full-growth medium in glass-bottom 96-well plates (CellVis P96-1.5H-N) that were coated with collagen prior to seeding. The seeding density was chosen such that the cells would remain sub-confluent until the end of the imaging period. Cells were first imaged for 16-20 hr in full-growth media without drug. The movie was then briefly paused and the full-growth media was replaced with full-growth media containing drug at the desired concentration. The plate was then re-inserted into the microscope and aligned to its prior position and imaging was continued for an additional 24-48 hr. Images were acquired every 12 min (for MCF10A or RPE-hTERT) or every 20 min (for MCF7 or OVCAR3) on a Nikon Eclipse Ti or Ti2 microscope with a 10×0.45 NA objective in a humidified, 37° C. chamber at 5% CO2. Exposure times for all movies for all channels were kept under 500 ms per timepoint to minimize phototoxicity. Cell tracking was performed using published MATLAB scripts (Cappell et al., 2016), as described previously (Arora et al., 2017). The tracking code is available for download at https://github.com/scappell/Cell_tracking. Cell counts over time were obtained by counting the number of segmented nuclei in each frame of the movie.
Asynchronously cycling cells that divided and received drug treatments during the imaging period were initially segmented into categories based on the cells' time of anaphase relative to the time of drug addition. These cells were then additionally subcategorized based on their DHB cytoplasmic/nuclear (C/N) ratio after the mitotic event. C/N ratio was calculated by quantifying the ratio of cytoplasmic to nuclear mean DHB fluorescence, with the cytoplasmic component calculated as the mean of the top 50th percentile of a ring of pixels outside of the nuclear mask.
Cells were classified as CDK2^inc if the DHB C/N ratio was above 0.5 units 3 hr after anaphase, otherwise they were classified as CDK2^low. Figure legends indicate whether only CDK2^inc cells or whether all cells are plotted. The median of the single-cell traces in a subcategory was then used to create median trace with 95% confidence interval representative of the particular subcategory. All cell trace analysis was done using custom MATLAB scripts and code is available upon request.

[3] = tested on: MCF10A, RPE-hTERT, MCF7 and OVCAR3 cells; experiment: Cell-cycle progression, mitosis and proliferation by time-lapse imaging; type: cell-based, human; conditions: 1 μM palbociclib (after the upcoming mitosis) or 9 μM RO3306 (toward end of cell cycle), MCF10A
Description: as §1, §2

SMILES	Nbs1 phosphorylation [1]	DHB sensor phosphorylation ([2]; 10 μM 3 MB-PP1, RPE-hTERT CDK2^F80G/F80G cells)	DHB sensor phosphorylation ([2]; 10 μM 3 MB-PP1, wild-type RPE-hTERT cells)	cell-cycle arrest [3]	DHB phosphorylation in RPE-hTERT CDK2^F80G/F80G cells as compared to wild-type RPE-hTERT cells ([2]; 9 μM RO3306)	effect on DHB sensor phosphorylation ([2]; 9 μM RO3306, MCF10A)
Cc1cccc(Cc2nn(C(C)(C)C)c3ncnc(N)c23)c1 [3 MB-PP1, 1-(tert-butyl)-3-(3-methylbenzyl)-1H-pyrazolo[3,4-d]pyrimidin-4-amine]	loss of Nbs1 phosphorylation	reduction in DHB sensor phosphorylation that quickly rebounded	not affected			
O=C1NC(=NCc2cccs2)S/C1=C\c1ccc2ncccc2c1 [RO3306]				G2 arrest	much greater drop in DHB phosphorylation	minimal immediate effect
